Reference: patent publication US9714249B2 (Novartis AG, priority 2013, dated 2017)

Columns and labels:
BRD4 (His-Brd4(44-477)) = BRD4 (His-Brd4(44-477)) (Homo sapiens (Human), UniProt O60885); assay: TR-FRET in-vitro binding assay for BRD4; details: acetyl-histone H4 peptide
Procedure: All assays were performed in 384 well microtiter plates. Each assay plate contained 8-point serial dilutions for 40 test compounds, plus 16 high- and 16 low controls. Liquid handling and incubation steps were done on an Innovadyne Nanodrop Express equipped with a robotic arm (Thermo CatX, Perkin Elmer/Caliper Twister II) and an incubator (Liconic STX40, Thermo Cytomat 2C450). The assay plates were prepared by addition of 50 nl per well of compound solution in 90% DMSO HummingBird nanodispenser (Zinsser Analytic). […] Reactions were incubated at 30° C. for 35 minutes. […] After 35 minutes incubation at 30° C., plates were measured in a Perkin Elmer EnVision multilabel reader.
(§1) Test compounds were dissolved in DMSO (10 mM) and transferred into 1.4 mL flat bottom or V-shaped Matrix tubes carrying a unique 2D matrix. The stock solutions were stored at […] if not used immediately. For the test procedure the vials were defrosted and identified by a scanner whereby a working sheet was generated that guided the subsequent working steps. Compound dilutions were made in 96 well plates. This format enabled the assay of maximally 40 individual test compounds at 8 concentrations (single points) including 4 reference compounds, if desired (known BET inhibitors from the prior art, for this and other assays of the type disclosed herein). The dilution protocol included the production of “pre-dilution plates”, “master plates” and “assay plates”.
(§2) Pre-dilution plates: 96 polypropylene well plates were used as pre-dilution plates. A total of 4 pre-dilution plates were prepared including 10 test compounds each on the plate positions A1-A10, one standard compound at A11 and one DMSO control at A12. All dilution steps were done on a HamiltonSTAR robot. […] These plates were used directly for the assay which was performed in a total volume of 13.55 μL. […] Cell Growth Inhibition Assay

[1] = target: CREBBP bromodomain (His-CREBBP (1081-1197)) (Homo sapiens (Human), UniProt Q92793); assay: AlphaScreen in-vitro binding assay for CREBBP; details: acetyl-histone H4 peptide
Procedure: In order to assess bromodomain selectivity, we set up a binding assay using the bromodomain encoded by the CREBBP gene. […] Reactions were incubated at 30° C. for 35 minutes. Subsequently 4.5 μl per well detection mix (50 mM HEPES, pH 7.5, 0.005% Tween20, 0.02% BSA, 150 mM NaCl, 45 μg/ml Ni-chelate acceptor beads, 45 μg/ml streptavidin-donor beads) (Perkin Elmer)) were added. After 60 minutes incubation at room temperature, plates were measured in a Perkin Elmer EnVision multilabel reader. IC50 values were determined from percent inhibition values at different compound concentrations by non-linear regression analysis.
as §1, §2

MV-4-11 cells = assay: Cell growth inhibition assay (CellTiter-Glo), MV-4-11; format: cell-based, human; details: MV-4-11, 4 days; for GI50: Homo sapiens, MV4-11, 96 h, half-maximal growth inhibition; for MV-4-11 TGI: total growth inhibition
Procedure: (§3) The human leukemia cell lines MV-4-11, THP-1 and K-562 were employed to characterize the effect of BET inhibitors on cellular proliferation and viability. Cells were obtained from the American Type Culture Collection (ATCC) and cultured at 37° C. in a humidified 5% CO2 incubator in the following media: MV-4-11: DMEM high glucose (Animed #1-26F01-I), 10% FCS (Animed #2-01F26-I), 4 mM L-Glutamine (Animed #5-10K50), 1 mM Sodium Pyruvate (Animed # G03625P), 1× Penicillin-Streptomycin (Animed # F12478P); K-562: Iscove's MEM (Animed #1-28F16-I), 10% FCS (Animed #2-01F26-I), 4 mM L-Glutamine (Animed #5-10K50), 1× Penicillin-Streptomycin (Animed # F12478P); THP-1: RPMI-1640 (Animed #1-41F01-I), 10% FCS (Animed #2-01F26-I), 2 mM L-Glutamine (Animed #5-10K50), 10 mM HEPES (Animed #5-31F100), 1 mM Sodium Pyruvate (Animed # G03625P), 1× Penicillin-Streptomycin (Animed # F12478P). The AML lines MV-4-11 and THP-1 are very sensitive to BET inhibitors and show massive cell death upon BET inhibition (Zuber et al., Nature, 478 (2011), 524-8). Compound-mediated suppression of cell proliferation/viability was assessed by quantification of cellular ATP levels using the CellTiter-Glo (CTG) reagent (Promega). Briefly, cells were seeded in 20 μl fresh medium into 384-well plates, followed by addition of 5 μl medium containing compound dilutions at 5-fold their final intended concentration. Dose-response effects were assessed by 3-fold serial dilutions of the test compound, starting at 10 μM. Following incubation of the cells for 4 days at 37° C. and 5% CO2, the effect of inhibitors on cell viability was quantified following addition of 20 μl CTG and luminescence quantification (integration time: 100 ms) as per vendor manual, using a correspondingly equipped Tecan M200 multi-mode platereader (TECAN, Switzerland). For data analysis, the assay background value determined in wells containing medium, but no cells, was subtracted from all data points. To enable differentiation of cytotoxic from cytostatic compounds, the number of viable cells is assessed relative to that observed at the time of compound addition using a separate cell plate (day 0). The effect of a particular test compound concentration on cell proliferation/viability is expressed as percentage of the background- and day 0-corrected luminescence reading obtained for cells treated with vehicle only (DMSO, 0.1% final concentration), which is set as 100%, whereas that luminescence reading for wells containing medium is set as −100%. Compound concentrations leading to half-maximal (1050) and total growth inhibition (TGI) were determined using standard four parameter curve fitting.

THP-1 cells = assay: Cell growth inhibition assay (CellTiter-Glo), THP-1; format: cell-based, human; details: THP-1, 4 days; for GI50: Homo sapiens, 96 h, half-maximal growth inhibition; for THP-1 TGI: total growth inhibition
Procedure: as §3

Sequence of CREBBP bromodomain (His-CREBBP (1081-1197)) (Q92793 1081-1197): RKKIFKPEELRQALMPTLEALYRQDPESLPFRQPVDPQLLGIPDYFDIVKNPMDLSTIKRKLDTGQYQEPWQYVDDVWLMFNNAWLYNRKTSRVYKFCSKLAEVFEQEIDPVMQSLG

| IC50 (BRD4 (His-Brd4(44-477))) [nM] | IC50 [1] [nM] | GI50 (MV-4-11 cells) [nM] | GI50 (THP-1 cells) [nM] | Compound | MV-4-11 TGI (MV-4-11 cells) [nM] | THP-1 TGI (THP-1 cells) [nM] |
| --- | --- | --- | --- | --- | --- | --- |
| 40 | 1900 | 18.6 | 36.6 | Cc1nn(C2CC2)c2c1C(=O)N(c1cc(C)c(=O)n(C)c1)C2c1ccc(Cl)cc1 (stereo not drawn) [Example 11, 6-(4-chlorophenyl)-1-cyclopropyl-5-(1,5-dimethyl-6-oxo-1,6-dihydropyridin-3-yl)-3-methyl-5,6-dihydropyrrolo[3,4-c]pyrazol-4(1H)-one] | 29.4 | 82.2 |
| 28 | 1400 | 24.6 | 44.9 | Cc1cc(N2C(=O)c3c(C4CC4)nn(C)c3C2c2ccc(Cl)cc2)cn(C)c1=O (stereo not drawn) [Example 1, 6-(4-chlorophenyl)-3-cyclopropyl-5-(1,5-dimethyl-6-oxo-1,6-dihydropyridin-3-yl)-1-methyl-5,6-dihydropyrrolo[3,4-c]pyrazol-4(1H)-one] | 41.2 | 104 |
| 89 | 3000 | 39.4 | 76.4 | Cc1nn(C)c2c1C(=O)N(c1cc(C)c(=O)n(C)c1)C2c1ccc(Cl)cc1 (stereo not drawn) [Example 10, 6-(4-chlorophenyl)-5-(1,5-dimethyl-6-oxo-1,6-dihydropyridin-3-yl)-1,3-dimethyl-5,6-dihydropyrrolo[3,4-c]pyrazol-4(1H)-one] | 65.5 | 132 |

More lines, now with the values behind:

| Compound | IC50 (BRD4 (His-Brd4(44-477))) [nM] | IC50 [1] [nM] | GI50 (MV-4-11 cells) [nM] | GI50 (THP-1 cells) [nM] | MV-4-11 TGI (MV-4-11 cells) [nM] | THP-1 TGI (THP-1 cells) [nM] |
| --- | --- | --- | --- | --- | --- | --- |
| COc1ncccc1-c1nn(C)c2c1C(=O)N(c1cc(C)c(=O)n(C)c1)C2c1ccc(Cl)cc1 (stereo not drawn) [Example 15, 6-(4-chlorophenyl)-5-(1,5-dimethyl-6-oxo-1,6-dihydropyridin-3-yl)-3-(2-methoxypyridin-3-yl)-1-methyl-5,6-dihydropyrrolo[3,4-c]pyrazol-4(1H)-one] | 62.5 | 1000 | 54.6 | 67.8 | 92.4 | 143 |
| COc1ncc(-n2nc3c(c2C)C(=O)N(c2cc(C)c(=O)n(C)c2)C3c2ccc(Cl)cc2)c(OC)n1 (stereo not drawn) [Example 14, 6-(4-chlorophenyl)-2-(2,4-dimethoxypyrimidin-5-yl)-5-(1,5-dimethyl-6-oxo-1,6-dihydropyridin-3-yl)-3-methyl-5,6-dihydropyrrolo[3,4-c]pyrazol-4(2H)-one] | 100 | 5100 | 122 | 219 | 203 | 352 |
| COc1ccc(-n2nc(C)c3c2C(c2ccc(Cl)cc2)N(c2cc(C)c(=O)n(C)c2)C3=O)cc1 (stereo not drawn) [Example 13, 6-(4-chlorophenyl)-5-(1,5-dimethyl-6-oxo-1,6-dihydropyridin-3-yl)-1-(4-methoxyphenyl)-3-methyl-5,6-dihydropyrrolo[3,4-c]pyrazol-4(1H)-one] | 103 | 2200 | 30 | 69.8 | 56.2 | 119 |
| Cc1[nH]nc2c1C(=O)N(c1cc(Cl)c(=O)n(C)c1)[C@@H]2c1ccc(Cl)cc1 [Example 28, (R)-5-(5-chloro-1-methyl-6-oxo-1,6-dihydropyridin-3-yl)-6-(4-chlorophenyl)-3-methyl-5,6-dihydropyrrolo[3,4-c]pyrazol-4(2H)-one] | 160 | 2200 | 49.3 | 110 | 86.4 | 201.5 |
| Cc1[nH]nc2c1C(=O)N(c1cc(Cl)c(=O)n(C)c1)C2c1ccc(Cl)cc1 (stereo not drawn) [Example 6, 5-(5-chloro-1-methyl-6-oxo-1,6-dihydropyridin-3-yl)-6-(4-chlorophenyl)-3-methyl-5,6-dihydropyrrolo[3,4-c]pyrazol-4(2H)-one] | 120 | 4100 | 74.1 | 189 | 134 | 352 |
